Measurements reported in US20160251342A1, “ALDEHYDE DERIVATIVE OF SUBSTITUTED OXAZOLIDINONES” (WANBURY LTD., priority 2012, published 2016).

Experiments:
[1] = Permeability in caco2 system; format: in vitro ADME; conditions: human, Caco-2; caco2
caco2 system = assay: Permeability in caco2 system; format: in vitro ADME; conditions: caco2, efflux >2
plasma protein = assay: Plasma protein binding (dialysis), human; format: in vitro ADME
Experimental: A compound solution (1 mM in DMSO) (5 μL), according to the invention is added to the respective plasma matrices of rat or human or mouse (1 ml).
Add 150 μl of phosphate buffer to receiving side of the dialysis well. […] Precipitate with Acetonitrile and dilute samples prior to analysis in 1.5 ml polypropylene tubes. Remove 50 μl from the sample side of dialysis well and add 50 μl of phosphate buffer+300 μl of acetonitrile containing IS. Remove 50 μl from the buffer side of the dialysis well and add 50 μl of respective matrix plasma+300 μl of ACN. Then vortexed and centrifuged for 5 min, and supernatant is taken and injected into LCMS.
Different test concentration ranging from 0.1 μM to 20 μM are made in methanol:water (90:10). Test solutions are added to the premixed matrix containing plasma:phosphate buffer (50:50). Precipitate with 300 μl of ice cold acetonitrile containing IS, vortexes and centrifuged. Supernatant is taken and injected into LCMS.
Percentage of plasma protein binding was obtained via Equation (2): % Fraction unbound=(concentration on the buffer side/concentration on the sample side)*100

CYP isoforms = assay: CYP inhibition studies, overall interpretation; format: in vitro ADME, humans; conditions: compound formula-B with other drug when administered
Experimental: The ability of substances to inhibit CYP1A2, CYP2C9, CYP2D6, CYP2C19, CYP2J2 and CYP3A4 in humans was investigated with pooled human liver microsomes as enzyme source in the presence of standard substrates (see below) which form CYP-isoform-specific metabolites.
Standard incubation mixtures comprise NADPH and substrates in 100 mM phosphate buffer (pH 7.4) in a total volume of 200 μl. Test compound are dissolved in acetonitrile. Incubated with pooled human liver microsomes at 37° C. for a defined time. The reactions are stopped by adding 100 μl of acetonitrile in which a suitable internal standard is always present. Precipitated proteins are removed by centrifugation, and the supernatants analyzed by LC-MS/MS. The data represents the extrapolated IC50 (μM) concentration derived from 3 μM.
This is an essential parameter to gauge drug-drug interactions.

[2] = Intravenous and oral pharmacokinetics in Wistar rats; format: in vivo; conditions: after i.v. administration, first measurement point
Experimental: On the day before administration of the substance, a catheter for obtaining blood is implanted in the jugular vein of the experimental animals (male Wistar rats, body weight 200-250 g) under Isofluran® anesthesia.
Blood samples (8-12 time points) are taken through the catheter sequentially over the course of 24 h after administration of the substance. The administration volume is 10 ml/kg for oral and 1 ml/kg for IV in male Wistar rats. Intravenous administration is via a formulation of 2% N—N Dimethyl acetamide/ethanol 10%/PEG400(30%)/water for IV injection (58%) and via Tween80/PEG400/sterile water in the case of oral administration. […]
Plasma is obtained by centrifuging the samples in heparinized tubes. […] After centrifugation, compound formula (B) and, where appropriate, known cleavage products of the compound formula (B) in the supernatant are determined quantitatively using a suitable LC/MS-MS method.
The measured plasma concentrations are used to calculate pharmacokinetic parameters of the test substance and of the active ingredient compound (A) liberated there from, such as AUC, Cmax, T½ (half-life) and CL (clearance). […]
The plasma concentration/time plots determined are used to calculate the pharmacokinetic parameters such as AUC, Cmax, MRT (mean residence time), t½ (half life) and CL (clearance) employing the validated pharmacokinetic calculation programs. […]

SMILES: O=CN(C[C@H]1CN(c2ccc(N3CCOCC3=O)cc2)C(=O)O1)C(=O)c1ccc(Cl)s1 [compound formula (B), 5-chloro-N-formyl-N-({(5S)-2-oxo-3-[4-(3-oxomorpholin-4-yl)phenyl]-1,3-oxazolidin-5-yl}methyl)thiophene-2-carboxamide]
- Papp A→B [1]: 17.4 ×10⁻⁶ cm/s
- Interpretation: Pgp substrate (caco2 system): observed to be a Pgp substrate.
- Observation: amount of test product (plasma protein): Not quantificable amount of test
- Observation: formed Rivaroxaban bound to plasma protein (plasma protein): Rivaroxaban found to be High
- Interpretation: drug-drug interaction (CYP isoforms): Low drug-drug interaction
- Detectability of unchanged test substance in plasma [2]: no longer detectable
